Common to all, as to type: biochemical
One experiment deals with T1, JAK3 (Homo sapiens, UniProt P52333).
T1 sequence (P52333 1-1124): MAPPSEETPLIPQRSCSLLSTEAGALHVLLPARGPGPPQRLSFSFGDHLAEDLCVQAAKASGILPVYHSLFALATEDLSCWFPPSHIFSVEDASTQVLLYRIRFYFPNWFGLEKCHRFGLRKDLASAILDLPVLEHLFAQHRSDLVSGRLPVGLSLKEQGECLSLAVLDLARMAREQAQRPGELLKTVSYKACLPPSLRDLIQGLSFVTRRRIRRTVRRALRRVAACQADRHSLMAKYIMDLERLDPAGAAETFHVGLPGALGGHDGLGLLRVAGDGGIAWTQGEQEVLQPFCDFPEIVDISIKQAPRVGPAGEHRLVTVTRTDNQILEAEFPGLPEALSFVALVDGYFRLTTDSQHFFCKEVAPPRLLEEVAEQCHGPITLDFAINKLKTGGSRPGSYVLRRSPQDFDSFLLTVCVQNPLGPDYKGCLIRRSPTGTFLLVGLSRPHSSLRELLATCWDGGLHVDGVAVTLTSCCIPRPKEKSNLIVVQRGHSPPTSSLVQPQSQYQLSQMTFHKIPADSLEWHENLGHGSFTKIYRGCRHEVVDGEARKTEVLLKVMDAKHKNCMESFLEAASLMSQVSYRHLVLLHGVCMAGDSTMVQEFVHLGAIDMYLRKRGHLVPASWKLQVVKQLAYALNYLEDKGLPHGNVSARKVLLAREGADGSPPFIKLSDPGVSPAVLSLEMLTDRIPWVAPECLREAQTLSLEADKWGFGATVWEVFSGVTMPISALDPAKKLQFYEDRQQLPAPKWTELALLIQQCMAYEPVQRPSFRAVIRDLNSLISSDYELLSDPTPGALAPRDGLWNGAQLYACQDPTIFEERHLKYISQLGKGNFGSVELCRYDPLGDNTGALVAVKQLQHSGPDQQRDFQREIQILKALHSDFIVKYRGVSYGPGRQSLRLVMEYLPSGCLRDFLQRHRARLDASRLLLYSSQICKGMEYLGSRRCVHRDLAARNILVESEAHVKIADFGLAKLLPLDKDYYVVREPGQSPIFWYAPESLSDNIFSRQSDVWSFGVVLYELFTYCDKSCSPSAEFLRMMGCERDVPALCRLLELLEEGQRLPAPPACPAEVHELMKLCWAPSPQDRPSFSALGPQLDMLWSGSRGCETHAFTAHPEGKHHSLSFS
The experiment can be described thus: Inhibition of a panel of kinases, in vitro HotSpot kinase assay: JAK3. The conditions noted are these: for IC50: 1 μM ATP, read-out: IC50 JAK3; for JAK3* IC50 relative to Btk IC50 value: fold relative to Btk IC50 value.

A further experiment deals with T2, ITK (Homo sapiens, UniProt Q08881).
T2 sequence (Q08881 1-620): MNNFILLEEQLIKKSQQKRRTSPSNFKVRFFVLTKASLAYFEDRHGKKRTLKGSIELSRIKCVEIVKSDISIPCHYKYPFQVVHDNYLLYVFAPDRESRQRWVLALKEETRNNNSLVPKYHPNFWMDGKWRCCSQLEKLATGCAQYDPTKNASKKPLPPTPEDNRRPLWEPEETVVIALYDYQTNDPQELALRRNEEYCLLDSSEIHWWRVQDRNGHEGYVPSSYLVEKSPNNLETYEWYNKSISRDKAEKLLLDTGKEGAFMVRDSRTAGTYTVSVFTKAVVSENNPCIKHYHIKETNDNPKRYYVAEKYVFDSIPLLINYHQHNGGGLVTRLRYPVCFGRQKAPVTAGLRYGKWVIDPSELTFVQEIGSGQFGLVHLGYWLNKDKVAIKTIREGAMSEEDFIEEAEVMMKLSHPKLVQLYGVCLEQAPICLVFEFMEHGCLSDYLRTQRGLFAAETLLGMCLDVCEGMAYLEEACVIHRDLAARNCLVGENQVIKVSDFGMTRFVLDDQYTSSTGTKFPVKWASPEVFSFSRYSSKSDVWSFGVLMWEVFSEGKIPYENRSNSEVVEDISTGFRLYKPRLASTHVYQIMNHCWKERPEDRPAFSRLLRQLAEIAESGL
Kind of experiment: Inhibition of a panel of kinases, in vitro HotSpot kinase assay: ITK. Particulars: for IC50: 1 μM ATP; for ITK* IC50 relative to Btk IC50 value: fold relative to Btk IC50 value. The protocol:
(§1) The degree of inhibition of a panel of kinases is determined using the in vitro HotSpot kinase assay (purified enzymes, ^33P-ATP, an appropriate substrate and 1 μM ATP).

A further experiment addresses T3, TXK (Homo sapiens, UniProt P42681).
T3 sequence (P42681 1-527): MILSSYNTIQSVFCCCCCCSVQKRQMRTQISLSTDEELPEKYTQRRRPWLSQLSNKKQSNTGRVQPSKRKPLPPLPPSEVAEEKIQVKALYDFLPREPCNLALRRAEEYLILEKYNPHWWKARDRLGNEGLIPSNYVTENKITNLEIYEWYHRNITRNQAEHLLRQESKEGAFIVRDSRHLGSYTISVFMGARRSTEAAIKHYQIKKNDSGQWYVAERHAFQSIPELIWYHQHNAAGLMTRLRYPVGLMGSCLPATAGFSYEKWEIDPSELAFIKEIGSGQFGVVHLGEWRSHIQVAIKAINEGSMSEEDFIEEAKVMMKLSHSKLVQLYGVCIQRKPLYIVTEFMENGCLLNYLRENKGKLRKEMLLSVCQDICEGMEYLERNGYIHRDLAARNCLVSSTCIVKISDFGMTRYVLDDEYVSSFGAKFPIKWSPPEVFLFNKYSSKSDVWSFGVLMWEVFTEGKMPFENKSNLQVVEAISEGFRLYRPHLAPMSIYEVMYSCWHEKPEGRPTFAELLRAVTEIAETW
Kind of experiment: Inhibition of a panel of kinases, in vitro HotSpot kinase assay: TXK. The conditions noted are these: Table 15, C compounds; 1 μM ATP. The protocol:
as §1

As a reminder, the IC50 is the midpoint of a concentration-inhibition curve.

Like-named read-outs stand apart in the source and are kept apart here.

On to `C=CC(=O)N1CC[C@@H](N(C)c2nnc(C(N)=O)c(Nc3ccc(C(C)C)cc3)n2)C1` [Example C-41, (R)-3-((1-acryloylpyrrolidin-3-yl)(methyl)amino)-5-(4-isopropylphenylamino)-1,2,4-triazine-6-carboxamide], for which the IC50 on JAK3 (Table 15, C compounds) was less than 0.01 µM; against ITK (Table 15, C compounds), not above 0.01 µM; against TXK, not above 0.01 µM.
In the case of `C=CC(=O)N1CCC[C@@H](Nc2nnc(C(N)=O)c(Nc3ccc(C4CCN(C(=O)CC)CC4)cc3)n2)C1` [Example C-57, (R)-3-(1-acryloylpiperidin-3-ylamino)-5-(4-(1-propionylpiperidin-4-yl)phenylamino)-1,2,4-triazine-6-carboxamide], the IC50 was less than 0.01 µM on JAK3 (Table 15, C compounds); not above 0.01 µM against ITK (Table 15, C compounds); not above 0.01 µM against TXK.
As to `C=CC(=O)N1CC[C@@H](N(C)c2cnc(C(N)=O)c(Nc3ccc(C4CCN(C5CCCC5)CC4)cc3)n2)C1` [Example C-85, (R)-5-((1-acryloylpyrrolidin-3-yl)(methyl)amino)-3-(4-(1-cyclopentylpiperidin-4-yl)phenylamino) pyrazine-2-carboxamide], the IC50 is less than 0.01 µM on JAK3 (Table 15, C compounds); not above 0.01 µM at ITK (Table 15, C compounds); not above 0.01 µM against TXK.
For `C=CC(=O)N1CCC[C@@H](N(C)c2cnc(C(N)=O)c(Nc3ccc(C4(C)CCN(C5CCCC5)CC4)cc3)n2)C1` [Example C-44, (R)-5-((1-acryloylpiperidin-3-yl)(methyl)amino)-3-(4-(1-cyclopentyl-4-methylpiperidin-4-yl)phenylamino) pyrazine-2-carboxamide], the 50% inhibitory concentration (IC50) at JAK3 (Table 15, C compounds) was less than 0.01 µM; on ITK (Table 15, C compounds), not above 0.01 µM; at TXK it was not above 0.01 µM.
`C=CC(=O)N1CCC[C@@H](Nc2nnc(C(N)=O)c(Nc3cc(C)ns3)n2)C1` [Example C-56, (R)-3-(1-acryloylpiperidin-3-ylamino)-5-(3-methylisothiazol-5-ylamino)-1,2,4-triazine-6-carboxamide]: the IC50 at JAK3 (Table 15, C compounds) was less than 0.01 µM; on ITK (Table 15, C compounds), not above 0.01 µM; against TXK, not above 0.01 µM.
As to `C[C@@H]1[C@H](NC(=O)N(C)C)CCCN1c1cnc(C(N)=O)c(Nc2ccc(C(=O)N3CCN(C)CC3)cc2)n1` [Example A-98, 5-[(2R,3R)-3-[(dimethylcarbamoyl)amino]-2-methylpiperidin-1-yl]-3-{[4-(4-methylpiperazine-1-carbonyl)phenyl]amino}pyrazine-2-carboxamide], the 50% inhibitory concentration (IC50) on JAK3 (Table 13, A compounds) lay in the range of 1 to 10 µM; at ITK (Table 13, A compounds) it was 1 to 10 µM.
With `C=CC(=O)N1CCC[C@@H](Nc2cnc(C(N)=O)c(Nc3ccc(C4CCN(C5CCCC5)CC4)cc3)n2)C1` [Example C-84, (R)-5-(1-acryloylpiperidin-3-ylamino)-3-(4-(1-cyclopentylpiperidin-4-yl)phenylamino)pyrazine-2-carboxamide], the IC50 is less than 0.01 µM at JAK3 (Table 15, C compounds); not above 0.01 µM at ITK (Table 15, C compounds); not above 0.01 µM on TXK.
`C=CC(=O)N1CCC[C@@H](Nc2nnc(C(N)=O)c(Nc3ccc(C(C)(C)C)cc3)n2)C1` [Example C-40, (R)-3-(1-acryloylpiperidin-3-ylamino)-5-(4-tert-butylphenylamino)-1,2,4-triazine-6-carboxamide]: the IC50 at JAK3 (Table 15, C compounds) is less than 0.01 µM; at ITK (Table 15, C compounds) it was not above 0.01 µM; against TXK it was not above 0.01 µM.
As for `C[C@@H]1[C@H](NC(=O)c2ccc(C3CC3)cc2)CCCN1c1cnc(C(N)=O)c(Nc2cnn(C3CC3)c2)n1` [Example A-205, 3-[(1-cyclopropyl-1H-pyrazol-4-yl)amino]-5-[(2R,3R)-3-(4-cyclopropylbenzamido)-2-methylpiperidin-1-yl]pyrazine-2-carboxamide], the “JAK3* IC50 relative to Btk IC50 value” on JAK3 is 4032x. Further, the “ITK* IC50 relative to Btk IC50 value” on ITK is 135x.
`Cc1nn(C)cc1Nc1nc(N2CCC[C@@H](NC(=O)c3ccc(C4CC4)cc3)[C@H]2C)cnc1C(N)=O` [Example A-192, 5-((2R,3R)-3-(4-cyclopropylbenzamido)-2-methylpiperidin-1-yl)-3-(1,3-dimethyl-1H-pyrazol-4-ylamino)pyrazine-2-carboxamide]: the IC50 was more than 10 µM at JAK3 (Table 13, A compounds) and more than 10 µM at ITK (Table 13, A compounds).
Consider `C=CC(=O)N1CCC[C@@H](N(C)c2cnc(C(N)=O)c(Nc3ccc(C(C)C)cc3)n2)C1` [Example C-42, (R)-5-((1-acryloylpiperidin-3-yl)(methyl)amino)-3-(4-isopropylphenylamino) pyrazine-2-carboxamide], for which the IC50 on JAK3 (Table 15, C compounds) was 0.01 to 0.1 µM; against ITK (Table 15, C compounds), 0.01 to 0.1 µM; on TXK, not above 0.01 µM.
Regarding `C[C@@H]1[C@H](NC(=O)c2ccc(C3CC3)cc2)CCCN1c1cnc(C(N)=O)c(Nc2cnn(C(F)F)c2)n1` [Example A-198, 5-[(2R,3R)-3-(4-cyclopropylbenzamido)-2-methylpiperidin-1-yl]-3-{[1-(difluoromethyl)-1H-pyrazol-4-yl]amino}pyrazine-2-carboxamide], the “JAK3* IC50 relative to Btk IC50 value” on JAK3 turned out to be 1276x. On ITK, the “ITK* IC50 relative to Btk IC50 value” turned out to be 133x.

The values are drawn from patent US20210070748A1, “INHIBITORS OF BRUTONS TYROSINE KINASE” (Pharmacyclics LLC, priority 2015, published 2021).
